pIC50: −log10 of the molar value. Like-named read-outs stand apart in the source and are kept apart here.

Data set [1] deals with K562. As to the kind of experiment: Annexin V/7AAD apoptosis assay, K562. Type of data set: cell-based, human. Particulars: approximately 2×IC50, 48 h. How it is done: Apoptosis assay for leukemia cells was performed as follows. Cells were cultured in 6-well plates at a density of 3× 10^5 cells per well and treated with approximately 2×IC50 values of compound (Id) for 48 h. The experiments were performed in duplicates. To measure apoptosis, Annexin V APC and 7AAD staining (BD Biosciences, San Jose, CA, USA) was performed according to the manufacturer's recommendations, and 10,000 events were acquired using a FACSCanto flow cytometer (BD Biosciences, San Jose, CA, USA).

In data set [2] the test system is K562. Kind of data set: CellTiter-Blue cell viability assay, K562. Particulars: 48 h, mean of triplicates. The data set is classed as cell-based, human. The method, then: (§1) Cell culture of leukemia cell lines model was performed as follows. HL60, K562, and NB4 cell lines were purchased from CLS Cell Line Service GmbH (Eppelheim, Germany). MV4-11 cell line was purchased from American Type Culture Collection (ATCC; Virginia, USA). KG1α also referred to as KG1a was a gift from Prof. Ghulam Mufti (King College London, UK). Kasumi-1 cell line was purchased from Nawah Scientific (Cairo, Egypt). All cell lines were cultured in Roswell Park Memorial Institute-1640 (RPMI-1640) culture medium supplemented with 10% fetal bovine serum (FBS) (Thermo Fisher Scientific) and 0.1% ciprofloxacin (10 μg/ml; Cipla Limited; Mumbai, India). Cells were maintained in a humidified incubator at 37° C. with 5% CO2.
(§2) Cell viability was determined using the CellTiter-Blue® Cell Viability Assay kit (Promega, Madison, WI, USA). Approximately […] were plated in 96 well plate in the presence of increasing drug concentration in triplicate and incubated for 48 h at 37° C. in a humidified incubator. After the incubation period, 20 μL of the cell titer blue reagent was added to each well and the plate was incubated for additional 2 h for the development of florescence. Florescence was measured at 540Ex/590Em on SpectraMax i3 Multi-Mode Microplate Reader (Molecular Devices, LLC; San Jose, CA, USA). […]
(In general: Alamar Blue is a resazurin reagent that responds to reducing activity.)

Data set [3] can be described thus: Stability in mouse liver microsomes. The data set is classed as in vitro ADME. How it is done:
(§3) The clearance of compound (Id) in mouse or human liver microsomes was determined at 37° C. Both mouse and human liver microsomes were obtained from Merck KGaA, (Darmstadt, Germany), Cat. No. M9441 (Mouse liver microsomes) and M0317 (Human liver microsomes). Assays were conducted in triplicate in 96-deep well polypropylene plates. […] At five time points, reaction mixture aliquots were transferred to 96-shallow well stop plates on ice containing acetonitrile with 0.1 μM propafenone. […] Standard curves for test compounds were generated using 5 concentrations in triplicate that were processed as above but with zero incubation time. Stop plates were centrifuged at 2000 g for 10 min and then supernatant aliquots were transferred to a Waters Aquity® UPLC 700 μL 96-well sample plate with cap mat (Waters, Milford, MA). The amount of compound remaining in the supernatant was quantified by LC/MS/MS using a Waters Xevo TQ MS (electrospray positive mode) coupled to a Waters Aquity® UPLC (BEH column, C18). Propafenone was used as the internal standard. GraphPad® Prism v 5.04 was used for nonlinear fitting of time course data to generate t1/2 values.
On the technique in general: Liver microsomes are vesicles of endoplasmic reticulum, rich in cytochrome P450 enzymes.

Data set [4] is described as follows: Binding to mouse plasma proteins (equilibrium dialysis). Type of data set: in vitro ADME. How it is done: Binding to mouse plasma proteins was determined as follows. The equilibrium dialysis method for determining plasma protein binding was performed using 96-well dialyzer plates with molecular weight cutoff of 5K (Harvard Apparatus, Holliston, MA) and a dual-plate rotator set to maximum speed (Harvard Apparatus, Holliston, MA) located in a 37° C. incubator with a 10% CO2-atmospheric environment. Assays were run in triplicate. The test compound was added to CD-1 mouse plasma (Innovative Research, Novi, MI, sodium heparin added as anticoagulant; pH adjusted to 7.4 with 2N HCl on day of use) in DMSO (final DMSO concentration 0.4%) to give 10 μM final concentration. Drug/plasma mixture and buffer (Dulbecco's phosphate-buffered saline 1× without calcium and magnesium, Mediatech, Inc., Herndon, VA) were placed in their respective sides, wells were capped, and the plate was placed in the rotator and allowed to dialyze for 22 h. […] Concentrations of analyte from each side of the dialysis plate were determined by LC/MS/MS on a Waters Xevo TQ instrument as described above using positive electrospray ionization. […] The fraction unbound was calculated by dividing the drug concentration in the buffer side of the dialysis plate by the drug concentration in the plasma side.
Background: In equilibrium dialysis only unbound substance equilibrates across the membrane.

Data set [5] concerns NB4. Kind of data set: CellTiter-Blue cell viability assay, NB4. Type of data set: cell-based, human. Particulars: 48 h, mean of triplicates. The method, then: as §1, §2
Data set [6] can be described thus: Stability in human liver microsomes. The data set is classed as in vitro ADME. The method, then: as §3
Data set [7] concerns MV4-11. Kind of data set: CellTiter-Blue cell viability assay, MV4-11. Type of data set: cell-based, human. Particulars: 48 h, mean of triplicates. The method, then: as §1, §2
In data set [8] the test system is KG1a. Kind of data set: CellTiter-Blue cell viability assay, KG1a. Type of data set: cell-based, human. Particulars: 48 h, mean of triplicates. How it is done:
as §1, §2

Data set [9] has as its system HL60. Kind of data set: CellTiter-Blue cell viability assay, HL60. The data set is classed as cell-based, human. Particulars: 48 h, mean of triplicates. The method, then:
as §1, §2

In data set [10] the test system is HCT116. Kind of data set: CellTiter-Blue cell viability assay, HCT116. Type of data set: cell-based, human. Particulars: 50% cell viability vs untreated, mean of triplicates. The method, then:
Cell culture of colorectal carcinoma cell lines was performed as follows. DLD-1, HCT116, and HT-29 cells were purchased from CLS Cell Line Service GmbH (Eppelheim, Germany) and cultured in Dulbecco's Modified Eagle Medium (DMEM) high glucose, GlutaMAX™ Supplement, pyruvate (Thermo Fisher Scientific, Paisley, UK) supplemented with 10% fetal bovine serum (FBS; Thermo Fisher Scientific), 200 U/mL penicillin, and 200 μg/ml streptomycin (Thermo Fisher Scientific), at 37° C. with 5% CO2 in a humidified incubator.
The CellTiter®-Blue Cell Viability assay was acquired from Promega Corporation (Madison, WI, USA). Cell viability assay was performed as follows: DLD-1 (4×10^3/well), HCT116 (4×10^3/well), and HT-29 (7×10^3/well) were incubated with a concentration gradient of compound (Id) ranging from 0.01 to 20 μM, in 96-well plates for 48 h at 37° C. Subsequently, 20 μl CellTiter®-Blue Cell Viability reagent was added to each well and incubated for an additional 2 h for the development of fluorescence. The fluorescence emission was measured at 590 nm using a SpectraMax® i3× Multi-Mode microplate reader (Molecular Devices, LLC, San Jose, CA, USA) and plotted against drug concentrations to determine the mean inhibitory concentration of compound (Id) producing 50% decrease in cell viability (IC50). Experiments were performed in triplicates.

[11] abbreviates: without NADPH, percent remaining after 60 min incubation.
[12] abbreviates: without NADPH, percent remaining after 60 min incubation, listed as compound (Id).
The mark [13] stands for this setting: human liver microsomes, in presence of NADPH, 37° C.

Broadly, the pIC50 is the IC50 on a negative log10 scale, so that one unit is a factor of ten. A high value points to a low IC50. As for `CC1=N/C(=C\c2ccc(C)o2)C(=O)N1c1ccc(CC(=O)NCc2ccccc2)cc1` [Compound (Id), 2-Methyl-4-(5-methyl-2-furyl)methylene-1-[4-(benzylaminocarbonylmethyl)phenyl]-5-oxo-1H-imidazole], in data set [1], the “apoptosis in K562 cells” value was “strong apoptosis”. For the same molecule, the negative logarithm of the IC50 (pIC50) in data set [2] (Homo sapiens, K562) is 6.36; in data set [5] (Homo sapiens, NB-4) it was 6.72; in [7] (Homo sapiens, MV4-11), 6.60; in [8] (Homo sapiens, KG-1a) it was 6.31; in [9] (Homo sapiens, HL-60), 6.35; in data set [10] (48 h), 5.84. In data set [10] (Homo sapiens, HCT-116, 48 h), this molecule had a negative-log IC50 (pIC50) of 5.84. For the same molecule, the half-life in data set [3] (male, CD-1, mouse liver microsomes, in presence of NADPH, 37° C., read-out: Stability MLM t1/2) was found to be 16.6 min; in data set [6] (human, liver microsomes, human liver microsomes, in presence of NADPH, 37° C., read-out: Stability HLM t1/2), 30 min. The “Mic. Ctrl. Mouse % @60 min” value in data set [3] (setting [11]) is reported as 90%; in [3] (setting [12]), “did not change”. In addition, the fraction unbound at 22 h, 10 μM in data set [4] (CD-1, mouse, plasma, pH 7.4, equilibrium dialysis 22 h, read-out: Mouse PPB (% free)) came out at 0.032. In data set [6] (setting [13]), the “Stability HLM t1/2” value was 30.3 min. The “Mic. Ctrl. Human % @60 min” value is 118% in data set [6] (setting [11]) and “did not change” in data set [6] (setting [12]).
In the case of `COc1ccc(/C=C2\N=C(C)N(c3ccc(CC(=O)NCc4ccccc4)cc3)C2=O)cc1` [KIM-161, reference compound], the negative logarithm of the IC50 (pIC50) was 6.55 in data set [2]; 6.83 in data set [5]; 6.44 in data set [7]; 6.55 in data set [8]; 6.62 in data set [9]; 5.75 in data set [10] (48 h). Also, in data set [3], the “Mic. Ctrl. Mouse % @60 min” value stood at 112%. In addition, the “Stability MLM t1/2” value in data set [3] (mouse liver microsomes, in presence of NADPH, 37° C.) was found to be 14.8 min. For the same molecule, the “Mouse PPB (% free)” value in [4] (10 μM, equilibrium dialysis 22 h) came to 5%. For the same molecule, the “Mic. Ctrl. Human % @60 min” value in [6] came to 113%. Further, the “Stability HLM t1/2” value in data set [6] (setting [13]) was 22.9 min.

(Values after patent US20250282764A1, “IMIDAZOLE HETEROCYCLE BASED COMPOUNDS AND METHODS OF TREATING CANCER” (King Abdulaziz University, priority 2024, published 2025).)
